According to patent publication US9273318B2, “Induction of thyroid iodide-handling gene expression in human cancers” (THE JOHNS HOPKINS UNIVERSITY, priority 2008, dated 2016):
“Also recorded” adds a separate entry of the source. Like-named read-outs stand apart in the source and are kept apart here.

Tests used:
[1] = system: NIS protein; experiment: Flow cytometry and immunofluorescence of NIS protein expression, KAT10 cells; format: cell-based, human; conditions: U0126 10 μM, Akti IV 2 μM, control 8.8%
Procedure: FIG. 14A-14C. […] FIG. 14A) Flow cytometric measurement of NIS protein expression. […] NIS protein levels were measured by flow cytometry. The blue frames indicate the cells expressing NIS protein, including dead (right upper quadrant; positive for both 7-AAD and NIS) and living (right lower quadrant, positive only for NIS) cells. FIG. 14B) Immunofluorescent localization of NIS. After a 30-h combined treatment with both Akti IV and U0126 (as in FIG. 14A), cells were analyzed by immunofluorescent microscopy using anti-NIS and FITC-coupled secondary antibody and double immunofluorescence with the red color representing 7-AAD nuclear staining and the green color representing NIS expression and localization. […] FIG. 14C) In vitro radioiodide uptake. […] Cells were subsequently incubated with 1 μCi Na125I/0.5 ml/well on 12-well plates for 1 h. Cells were then washed and harvested for radioactivity measurement using a gamma-counter as described in the Experimental Procedures. Data are expressed as the mean±SD of values from three assays. **, P<0.01, compared with control or empty vector. […]

[2] = system: thyroid iodide-handling genes (NIS, TSHR, Tg, TPO, FOXE1, TTF1); experiment: RT-PCR / quantitative RT-PCR of thyroid iodide-handling genes, NPA cells; format: cell-based, human; conditions: U0126 10 μM, Akti IV 0.5 μM, 30 h
[3] = system: phosphorylation of Akt (p-Akt); experiment: Western blotting of phosphorylated Akt in NPA cells; conditions: Akti IV 0.5 μM, 30 h
Procedure: FIGS. 1A-1C Effects of suppression of the MAPK and PI3K/Akt pathways by specific inhibitors on NPA cells. FIG. 1A) Inhibition of ERK and Akt phosphorylation by suppression of MAPK and PI3K/Akt pathways using the MEK-specific inhibitor U0126 and the Akt-specific inhibitor Akti IV, respectively. NPA cells were treated with U0126 at 10 μM, or with Akti IV at 0.5 μM for 30 h. Cells were lysed for Western blotting assay. The activities of MAPK and PI3K/Akt pathways were reflected by the level of phosphorylated ERK and Akt detected with specific anti-phosphorylated ERK (p-ERK) and anti-phosphorylated Akt (p-Akt) antibodies. Immunoblotting with antibody against β-actin was used for quality control.
Effects of suppression of the PI3K/Akt and MAP kinase pathways by specific inhibitors on thyroid cancer cells. FIG. 7 A) Inhibition of Akt and ERK phosphorylation by suppression of PI3K/Akt and MAP kinase pathways using the Akt-specific inhibitor Akti IV and the MEK-specific inhibitor U0126, respectively. NPA and KAT10 cells were treated with Akti IV at 0.5 and 2 μM, respectively, or with U0126 at 10 μM for 30 h. Cells were lysed for Western blotting assay. The activities of PI3K/Akt and MAP kinase pathways were reflected by the level of phosphorylated Akt and ERK detected with specific anti-phosphorylated Akt (p-Akt) and anti-phosphorylated ERK (p-ERK) antibodies. […]

[4] = system: NPA cells; experiment: MTT cell proliferation assay, NPA cells; conditions: 4 μM U0126, 0.2 μM Akti IV, 5-day course
Procedure: FIG. 1B) Inhibition of cell proliferation by suppression of MAPK and PI3K/Akt pathways achieved with U0126 and Akti IV individually or in combination (U+A) as indicated. MTT assay was performed to evaluate cell proliferation over a 5-day course of treatment with U0126 and Akti IV.
(§4) FIG. 7B) Inhibition of thyroid cancer cell proliferation by suppression of PI3K/Akt and MAP kinase pathways achieved with Akti IV and U0126 individually or in combination (U+A) as indicated. MTT assay was performed to evaluate cell proliferation over a 5-day course of treatment with Akti IV and U0126.

[5] = system: thyroid genes (Tg, TSHR, NIS, TTF-1, TTF2); experiment: Quantitative real-time PCR of thyroid iodide-metabolizing genes, KAT10 cells; format: cell-based, human; conditions: U0126 10 μM, Akti IV 2 μM, 30 h
[6] = system: phosphorylation of Akt (p-Akt); experiment: Western blotting of phosphorylated Akt in KAT10 cells; conditions: Akti IV 2 μM, 30 h
Procedure: Effects of suppression of the PI3K/Akt and MAP kinase pathways by specific inhibitors on thyroid cancer cells. […] NPA and KAT10 cells were treated with Akti IV at 0.5 and 2 μM, respectively, or with U0126 at 10 μM for 30 h. Cells were lysed for Western blotting assay. The activities of PI3K/Akt and MAP kinase pathways were reflected by the level of phosphorylated Akt and ERK detected with specific anti-phosphorylated Akt (p-Akt) and anti-phosphorylated ERK (p-ERK) antibodies. Immunoblotting with antibody against β-actin was used for quality control.
Cells were lysed in RIPA buffer (Santa Cruz, Calif.). Cellular proteins were resolved by electrophoresis on a SDS-polyacrylamide (10%) gel (SDS-PAGE), transferred onto PVDF membranes (Amersham Pharmacia Biotech, Piscataway, N.J.), and immunoblotted with specific primary antibodies. Anti-BRAF (Sc-166), anti-phospho-Akt-1/2/3 (Sc-7985-R), anti-phospho-ERK (Sc-7383), and anti-Actin (Sc-1616-R) were purchased from Santa Cruz (Santa Cruz, Calif.). Anti-Akt-1 (#2967) and anti-Akt-2 (#2964) were purchased from Cell Signaling Technologies, Inc. (Beverly, Mass.). Antigen-antibody complexes were visualized using HRP-conjugated anti-mouse (Sc-2005, Santa Cruz, Calif.) or anti-rabbit (Sc-2004, Santa Cruz, Calif.) IgG antibodies and ECL Western Blotting Analysis System (Amersham Pharmacia).

[7] = system: NPA cells; experiment: Radioactive iodide uptake assay, NPA cells; format: cell-based, human; conditions: NPA cells treated with inhibitors, 1 μCi Na125I, 1 h
Procedure: (§1) FIG. 6A-6D. […] After a serum starvation for 24 h, total RNA was isolated for expression analysis for the indicated thyroid iodide-metabolizing genes. RT-PCR analysis was performed for the expression of NIS in NPA cells. FIG. 6B) Flow cytometric measurement of NIS protein expression. NPA cells were treated with specific inhibitors (upper panel) as described in FIG. 1 or stably transfected with specific siRNAs to knock down BRAF and Akt-1/2, individually or in combination as described in FIG. 3 (lower panel). NIS protein levels were measured by flow cytometry. […] After a 30-h combined treatment with both U0126 and Akti IV (as in FIG. 6B), cells were analyzed by immunofluorescent microscopy using anti-NIS and FITC-coupled secondary antibody and double immunofluorescence with the red color representing 7-AAD nuclear staining and the green color representing NIS expression and localization. […] Cells were then washed and harvested for radioactivity measurement using a gamma-counter as described in the Materials and Methods. Data are expressed as the mean±SD of values from three assays. **, P<0.01, compared with control or empty vector.
(§2) FIG. 14A-14C. […] NIS protein levels were measured by flow cytometry. […] Cells were then washed and harvested for radioactivity measurement using a gamma-counter as described in the Experimental Procedures. […]

[8] = system: KAT10 cells; experiment: MTT cell proliferation assay, KAT10 cells; conditions: 4 μM U0126, 1 μM Akti IV, 5-day course
Procedure: as §4

[9] = system: KAT10 cells; experiment: Radioactive iodide uptake assay, KAT10 cells; format: cell-based, human; conditions: KAT10 cells treated with inhibitors, 1 μCi Na125I, 1 h
Procedure: FIG. 14A-14C. […] FIG. 14A) Flow cytometric measurement of NIS protein expression. […] NIS protein levels were measured by flow cytometry. The blue frames indicate the cells expressing NIS protein, including dead (right upper quadrant; positive for both 7-AAD and NIS) and living (right lower quadrant, positive only for NIS) cells. FIG. 14B) Immunofluorescent localization of NIS. After a 30-h combined treatment with both Akti IV and U0126 (as in FIG. 14A), cells were analyzed by immunofluorescent microscopy using anti-NIS and FITC-coupled secondary antibody and double immunofluorescence with the red color representing 7-AAD nuclear staining and the green color representing NIS expression and localization. […] FIG. 14C) In vitro radioiodide uptake. […] Cells were subsequently incubated with 1 μCi Na125I/0.5 ml/well on 12-well plates for 1 h. Cells were then washed and harvested for radioactivity measurement using a gamma-counter as described in the Experimental Procedures. Data are expressed as the mean±SD of values from three assays. **, P<0.01, compared with control or empty vector.
Thyroid cancer cells (1×10^6 cells/well) treated under the indicated conditions were seeded in 12-well plates. […] Cells were collected and radioactivity was counted by a gamma-counter.

[10] = system: NIS protein; experiment: Flow cytometry and immunofluorescence of NIS protein expression, NPA cells; format: cell-based, human; conditions: U0126 10 μM, Akti IV 0.5 μM, 30 h, control 3.4%
Procedure: as §1, §2

[11] = system: phosphorylation of ERK (p-ERK); conditions: NPA cells, U0126 10 μM, 30 h
Source text: Cells were lysed for Western blotting assay.
(§3) FIG. 7A-7C. […] Cells were lysed for Western blotting assay.
Cells were lysed in RIPA buffer.

[12] = system: phosphorylation of ERK (p-ERK); conditions: KAT10 cells, U0126 10 μM, 30 h
Source text: as §3

Row | SMILES | NIS expression (cells expressing NIS protein, flow cytometry) [1] [%] | expression of iodide-handling genes (NIS, TSHR, Tg, TTF1) [2] | inhibition of phosphorylation of Akt (p-Akt) [3] | inhibition of cell proliferation (MTT) [4] | expression of thyroid genes (Tg, TSHR, NIS, TTF1) [5] | inhibition of phosphorylation of Akt (p-Akt) [6] | radioiodide uptake [7] | inhibition of cell proliferation (MTT) [8] | Na125I uptake [9] | NIS expression (cells expressing NIS protein, flow cytometry) [10] [%] | inhibition of phosphorylation of ERK (p-ERK) [11] | inhibition of phosphorylation of ERK (p-ERK) [12]
1 | CC[n+]1c(/C=C/N(C)c2ccccc2)n(-c2ccccc2)c2ccc(-c3nc4ccccc4s3)cc21.[I-] [Akti IV, Akt inhibitor IV] | 29 | restored; also recorded: induced or dramatically enhanced | strongly inhibited | partially | restored | strongly inhibited | significantly increased | partially | significantly increased | 13.7 | – | –
2 | N#CC(=C(/N)Sc1ccccc1N)/C(C#N)=C(\N)Sc1ccccc1N [U0126] | 11.8 | restored; also recorded: induced or dramatically enhanced | – | partially | restored | – | significantly increased | partially | significantly increased | 6 | strongly inhibited | strongly inhibited
